In brackets after ≈: the same amount, converted by molar mass. Blank lines part the entries; values can stand above or below the compound they belong to.
Columns and labels:
Test in all cases: ≥ marks a high value that may be exact or a test limit, other limits are often not marked, values filed in µg/mL are converted to µM
[1] = test system: Pseudomonas aeruginosa Ps4
[2] = test system: Candida albicans ATCC 10231
[3] = test system: Enterococcus faecalis PCM 2673
[4] = test system: Escherichia coli ATCC 25922
[5] = test system: Pseudomonas aeruginosa ATCC 9027
[6] = test system: Staphylococcus aureus ATCC 25923
[7] = test system: Staphylococcus aureus ATCC 43300
[8] = test system: Staphylococcus aureus SH1000
[9] = test system: Acinetobacter baumannii ATCC 19606
[10] = test system: Cryptococcus neoformans ATCC 208821
[11] = test system: Klebsiella pneumoniae ATCC 700603
[12] = test system: Pseudomonas aeruginosa ATCC 27853
[13] = test system: Candida albicans ATCC 90028
[14] = test system: Staphylococcus epidermidis
[15] = test system: Staphylococcus aureus ATCC BAA-41
[16] = test system: Pseudomonas aeruginosa PAO1
[17] = test system: Escherichia coli BL21
[18] = test system: Staphylococcus aureus ATCC 6538P
[19] = test system: Escherichia coli UB1005
[20] = test system: Pseudomonas aeruginosa H744
[21] = test system: Salmonella enterica subsp. enterica serovar Typhimurium ATCC 14028s
[22] = test system: Pseudomonas aeruginosa K799
[23] = test system: Pseudomonas aeruginosa H547
[24] = test system: Burkholderia cepacia ATCC 25416
[25] = test system: Pseudomonas aeruginosa Z61
[26] = test system: Pseudomonas aeruginosa H374
[27] = test system: Pseudomonas aeruginosa PA14
[28] = test system: Staphylococcus aureus ATCC 29231
[29] = test system: Klebsiella aerogenes ATCC 13048

Structure (SMILES): NC(=O)CC[C@H](NC(=O)[C@H](Cc1c[nH]c2ccccc12)NC(=O)[C@@H](N)Cc1ccccc1)C(=O)N[C@@H](CCCN=C(N)N)C(=O)N[C@@H](CC(N)=O)C(=O)N[C@@H](Cc1c[nH]c2ccccc12)C(=O)N[C@@H](CCCN=C(N)N)C(=O)N[C@@H](Cc1c[nH]c2ccccc12)C(=O)N[C@@H](CCCN=C(N)N)C(=O)N[C@@H](CCCN=C(N)N)C(N)=O [FWQRNWRWRR]
- MIC [1]: ≥ 157 µM

Structure (SMILES): CC[C@H](C)[C@H](NC(=O)[C@H](CCCN=C(N)N)NC(=O)[C@@H](NC(=O)[C@H](CC(N)=O)NC(=O)[C@H](CCCN=C(N)N)NC(=O)[C@H](Cc1c[nH]c2ccccc12)NC(=O)[C@@H](N)Cc1ccccc1)[C@@H](C)CC)C(=O)N[C@@H](Cc1c[nH]c2ccccc12)C(=O)N[C@@H](CCCN=C(N)N)C(=O)N[C@@H](CCCN=C(N)N)C(N)=O [FWRNIRIWRR]
- MIC [1]: ≥ 166 µM

Structure (SMILES): CC[C@H](C)[C@H](NC(=O)[C@H](CCCCN)NC(=O)[C@H](CCCCN)NC(=O)[C@@H](NC(=O)[C@@H](NC(=O)[C@H](CC(=O)O)NC(=O)[C@H](C)NC(=O)[C@H](CC(C)C)NC(=O)CN)[C@@H](C)CC)[C@@H](C)CC)C(=O)N[C@@H](C)C(=O)N[C@@H](CCC(=O)O)C(=O)N[C@@H](CO)C(=O)N[C@@H](Cc1ccccc1)C(N)=O [GLADIIKKIAESF]
- MIC [2]: 91.1 µM (≈ 128 µg/mL)
- MIC [3]: ≥ 182 µM
- MIC [4]: 91.1 µM (≈ 128 µg/mL)
- MIC [5]: 365 µM (≈ 512 µg/mL)
- MIC [6]: 365 µM (≈ 512 µg/mL)

Structure (SMILES): CC[C@H](C)[C@H](NC(=O)[C@H](C)NC(=O)[C@H](CC(=O)O)NC(=O)[C@H](Cc1ccccc1)NC(=O)[C@H](CC(C)C)NC(=O)CN)C(=O)N[C@@H](CCCCN)C(=O)N[C@@H](CCCCN)C(=O)N[C@H](C(=O)N[C@@H](C)C(=O)N[C@@H](CCC(=O)O)C(=O)N[C@@H](CO)C(=O)N[C@@H](Cc1ccccc1)C(N)=O)[C@@H](C)CC [GLFDAIKKIAESF]
- MIC [2]: 178 µM (≈ 256 µg/mL)
- MIC [3]: ≥ 89 µM
- MIC [4]: 178 µM (≈ 256 µg/mL)
- MIC [5]: 356 µM (≈ 512 µg/mL)
- MIC [6]: > 356 µM

Structure (SMILES): CC(C)C[C@H](NC(=O)[C@H](C)NC(=O)CNC(=O)[C@@H](NC(=O)[C@@H](NC(=O)[C@H](CCCCN)NC(=O)[C@H](CCCCN)NC(=O)[C@@H](NC(=O)[C@H](CC(C)C)NC(=O)[C@H](CCCCN)NC(=O)[C@H](CC(C)C)NC(=O)[C@H](CC(C)C)NC(=O)[C@@H](N)CCCCN)C(C)C)C(C)C)C(C)C)C(=O)NCC(N)=O [KLLKLVKKVVGALG]
- MIC [7]: > 22 µM
- MIC [8]: ≥ 33 µM
- MIC [9]: > 22 µM
- MIC [10]: 22 µM (≈ 32.2 µg/mL)
- MIC [4]: > 22 µM
- MIC [11]: > 22 µM
- MIC [12]: > 22 µM
- MIC [13]: 22 µM (≈ 32.2 µg/mL)

Structure (SMILES): CC[C@H](C)[C@H](NC(=O)[C@H](CCCCN)NC(=O)[C@H](CCCCN)NC(=O)[C@H](Cc1ccccc1)NC(=O)[C@H](CCCCN)NC(=O)[C@H](CCCCN)NC(=O)[C@H](Cc1c[nH]c2ccccc12)NC(=O)[C@@H](N)CCCCN)C(=O)NCC(=O)N[C@@H](CCCCN)C(=O)N[C@H](C(=O)N[C@@H](CC(C)C)C(=O)N[C@@H](CCCCN)C(=O)N[C@H](C(=O)N[C@@H](CC(C)C)C(=O)O)C(C)C)C(C)C [KWKKFKKIGKVLKVL]
- MIC [14]: 0.25 µM (≈ 0.461 µg/mL)
- MIC [15]: 16 µM (≈ 29.5 µg/mL)
- MIC [16]: 0.707 µM (≈ 1.3 µg/mL)
- MIC [17]: 0.5 µM (≈ 0.922 µg/mL)
- MIC [18]: 16 µM (≈ 29.5 µg/mL)

Structure (SMILES): CC[C@H](C)[C@H](NC(=O)[C@H](CCCCN)NC(=O)[C@H](Cc1c[nH]c2ccccc12)NC(=O)[C@H](CC(C)C)NC(=O)[C@@H](NC(=O)[C@H](CCCCN)NC(=O)[C@H](Cc1c[nH]c2ccccc12)NC(=O)[C@@H](N)CC(C)C)[C@@H](C)CC)C(=O)N[C@@H](Cc1c[nH]c2ccccc12)C(=O)N[C@@H](CCCN=C(N)N)C(=O)N[C@H](C(=O)N[C@@H](CC(C)C)C(=O)N[C@@H](CCCCN)C(=O)N[C@@H](CC(N)=O)C(=O)N[C@@H](Cc1c[nH]c2ccccc12)C(=O)N[C@@H](CCCN=C(N)N)C(=O)O)C(C)C [LWKILWKIWRVLKNWR]
- MIC [2]: > 57.2 µM
- MIC [27]: ≥ 57.2 µM
- MIC [28]: 28.6 µM (≈ 64 µg/mL)
- MIC [29]: ≥ 57.2 µM

Now from value to compound:

- MIC [7]: 10 µM (≈ 15.8 µg/mL)
- MIC [8]: ≥ 33 µM
- MIC [9]: 1 µM (≈ 1.58 µg/mL)
- MIC [10]: 3 µM (≈ 4.73 µg/mL)
- MIC [4]: 20 µM (≈ 31.6 µg/mL)
- MIC [11]: > 20 µM
- MIC [12]: > 20 µM
- MIC [13]: 20 µM (≈ 31.6 µg/mL)
Structure (SMILES): CC(C)C[C@H](NC(=O)[C@H](C)NC(=O)[C@H](CCCCN)NC(=O)[C@H](CC(C)C)NC(=O)[C@H](CC(C)C)NC(=O)[C@H](CCCCN)NC(=O)[C@H](CCCCN)NC(=O)[C@H](CC(C)C)NC(=O)[C@H](CC(C)C)NC(=O)[C@H](CCCCN)NC(=O)[C@H](CC(C)C)NC(=O)[C@H](CC(C)C)NC(=O)[C@@H](N)CCCCN)C(=O)NCC(N)=O [KLLKLLKKLLKALG]

- MIC [14]: 0.5 µM (≈ 0.893 µg/mL)
- MIC [15]: 16 µM (≈ 28.6 µg/mL)
- MIC [16]: 0.707 µM (≈ 1.26 µg/mL)
- MIC [17]: 0.354 µM (≈ 0.632 µg/mL)
- MIC [18]: 16 µM (≈ 28.6 µg/mL)
Structure (SMILES): CC[C@H](C)[C@H](NC(=O)[C@H](CCCCN)NC(=O)[C@H](CCCCN)NC(=O)[C@H](Cc1ccccc1)NC(=O)[C@H](CCCCN)NC(=O)[C@H](CCCCN)NC(=O)[C@H](Cc1c[nH]c2ccccc12)NC(=O)[C@@H](N)CCCCN)C(=O)NCC(=O)N[C@@H](C)C(=O)N[C@H](C(=O)N[C@@H](CC(C)C)C(=O)N[C@@H](CCCCN)C(=O)N[C@H](C(=O)N[C@@H](CC(C)C)C(=O)O)C(C)C)C(C)C [KWKKFKKIGAVLKVL]

- MIC [19]: 0.944 µM (≈ 3 µg/mL)
- MIC [20]: 1.26 µM (≈ 4 µg/mL)
- MIC [21]: 0.944 µM (≈ 3 µg/mL)
- MIC [22]: 1.26 µM (≈ 4 µg/mL)
- MIC [23]: 1.26 µM (≈ 4 µg/mL)
- MIC [24]: 20.1 µM (≈ 64 µg/mL)
- MIC [25]: 0.944 µM (≈ 3 µg/mL)
Structure (SMILES): CC[C@H](C)[C@H](NC(=O)CNC(=O)[C@@H](NC(=O)[C@H](CCCCN)NC(=O)[C@H](CCCCN)NC(=O)[C@H](Cc1ccccc1)NC(=O)[C@H](CC(C)C)NC(=O)[C@H](CCCCN)NC(=O)[C@H](Cc1c[nH]c2ccccc12)NC(=O)[C@@H](N)CCCCN)[C@@H](C)CC)C(=O)NCC(=O)N[C@@H](C)C(=O)N[C@H](C(=O)N[C@@H](CC(C)C)C(=O)N[C@@H](CCCCN)C(=O)N[C@H](C(=O)N[C@@H](CC(C)C)C(=O)N[C@H](C(=O)N[C@H](C(=O)NCC(=O)N[C@@H](CC(C)C)C(=O)N1CCC[C@H]1C(=O)N[C@@H](C)C(=O)N[C@@H](CC(C)C)C(=O)N[C@@H](CCCCN)C(=O)N[C@@H](CC(C)C)C(=O)N[C@H](C(=O)N[C@@H](CC(C)C)C(=O)N[C@@H](CCCCN)C(=O)O)[C@@H](C)O)[C@@H](C)O)[C@@H](C)O)C(C)C)C(C)C [KWKLFKKIGIGAVLKVLTTGLPALKLTLK]

- MIC [19]: 0.721 µM (≈ 2 µg/mL)
- MIC [20]: 2.88 µM (≈ 8 µg/mL)
- MIC [21]: 15.5 µM (≈ 43 µg/mL)
- MIC [22]: 23.1 µM (≈ 64 µg/mL)
- MIC [23]: 5.76 µM (≈ 16 µg/mL)
- MIC [26]: 2.88 µM (≈ 8 µg/mL)
- MIC [24]: 23.1 µM (≈ 64 µg/mL)
- MIC [25]: 8.65 µM (≈ 24 µg/mL)
Structure (SMILES): CC[C@H](C)[C@H](NC(=O)[C@H](Cc1ccccc1)NC(=O)[C@H](CO)NC(=O)[C@H](CCCCN)NC(=O)[C@H](Cc1c[nH]c2ccccc12)NC(=O)[C@@H](N)CCCCN)C(=O)N[C@@H](CCCCN)C(=O)N[C@@H](CCCCN)C(=O)N[C@@H](CC(C)C)C(=O)N[C@H](C(=O)N[C@@H](CO)C(=O)N[C@@H](C)C(=O)N[C@@H](C)C(=O)N[C@@H](CCCCN)C(=O)N[C@@H](CCCCN)C(=O)N[C@H](C(=O)N[C@H](C(=O)N[C@H](C(=O)N[C@@H](C)C(=O)N[C@@H](C)C(=O)N[C@@H](CCCCN)C(=O)N1CCC[C@H]1C(=O)N[C@@H](CC(C)C)C(=O)N[C@H](C(=O)N[C@@H](CCCCN)C(=O)O)[C@@H](C)O)[C@@H](C)O)[C@@H](C)O)C(C)C)[C@@H](C)O [KWKSFIKKLTSAAKKVTTAAKPLTK]
